In patent publication US9932637B2, “Genetic polymorphisms associated with cardiovascular disorders and drug response, methods of detection and uses thereof” (CELERA CORPORATION, priority 2003, dated 2018):
Several values for one entry are separate records, joined by “and”; a condition that tells them apart may be missing. Equal entries are not always repeated.

Test system: patients with prior myocardial infarction (CARE study)
Assay: CARE aligned analysis (prospective and case/control design, white males): association of genotypes with pravastatin efficacy (Tables 13, 15)
Format: in vivo, human
Conditions: for Pravastatin Patients n/total: WM
Description: The data presented in Table 8 based on an association of genotypes with pravastatin efficacy of the CARE samples were further analyzed and presented in Table 13. The further analysis was performed to align the data obtained from the analysis of the CARE samples, which was a prospective study, to the analysis of the WOSCOP samples, which was a case/control study. Table 13 also presents an analysis of the association of genotypes with pravastatin efficacy in the WOSCOPs samples. Relative to the analysis performed on the data presented in Table 8, there are two significant differences to determine if the SNP influenced pravastatin efficacy. Data obtained from the CARE samples were separated by study design into two groups, those in the prospective study design group and those in the case/control study design group. The original care study contained 16 protocol defined cardiovascular disease defined endpoints and 150 other phenotypes. […] The control groups used to compare the data were also divided into two groups, the “all possible” control group and the “cleaner” control group. […] Because the participants in the WOSCOPs trial were all white males, only data obtained from white males in the CARE study were analysed. Data from the “all possible” and “cleaner” controls were compared to data obtained from the cases in the prospective study design while only data from “cleaner” controls were compared to cases in the case/control study design. The data from the case/control cohorts were analysed using conditional logistic regression (as opposed to logistic regression used for the original anaylsis).
The anaylsis was refined as described for both Tables 13 and 14.

[1] = PRKCQ hCV15954277, CARE, Case/Control, F MI/SD/NF MI
[2] = PRKCQ hCV15954277, CARE, Prospective, F MI/SD/NF MI
[3] = SERPINA5 hCV9596963, CARE Case/Control, F MI/SD/NF MI
[4] = SN hCV25623265, CARE Case/Control, F MI/SD/NF MI
[5] = SN hCV25623265, CARE Prospective, F MI/SD/NF MI
[6] = TAP1 hCV549926, CARE Case/Control, F MI/SD/NF MI
[7] = TAP1 hCV549926, CARE Prospective, F MI/SD/NF MI
[8] = TIMP2 hCV25629888, CARE Case/Control, F MI/SD/NF MI
[9] = TNF hCV7514879, CARE Case/Control, F MI/SD/NF MI
[10] = TNF hCV7514879, CARE Prospective, F MI/SD/NF MI
[11] = VTN hCV2536595, CARE Case/Control, F MI/SD/NF MI
[12] = VTN hCV2536595, CARE Prospective, F MI/SD/NF MI

Q: With CC[C@H](C)C(=O)O[C@H]1C[C@H](O)C=C2C=C[C@H](C)[C@H](CC[C@@H](O)C[C@@H](O)CC(=O)O)[C@H]21 [pravastatin] as the compound, how does the “n/total (%) cases, Pravastatin Patients, 2 Rare Alleles” value (PON1 hCV2548962, 2 rare alleles, CARE Prospective, Total CHD Events, All Possible controls, White Males) read?
A: 18/107 (16.8%)

Q: What about the “Pravastatin Patients n/total” value (PPOX hCV25922816, 0 Rare Alleles, CARE Prospective, F&NF MI, Cleaner controls) of the same compound?
A: 116/721

Q: And the “Pravastatin Patients n/total” value (PPOX hCV25922816, 1 Rare Allele, CARE Case/Control, F&NF MI, All Possible controls)?
A: 10/164

Q: What about the “Pravastatin Patients n/total” value (PPOX hCV25922816, 1 Rare Allele, CARE Prospective, F&NF MI, All Possible controls) of the same compound?
A: 10/169

Q: And the “Pravastatin Patients n/total” value (PPOX hCV25922816, 1 Rare Allele, CARE Prospective, F&NF MI, Cleaner controls)?
A: 10/113

Q: And the “2 Rare Alleles (%), Pravastatin Patients” value (PPOX hCV25922816, CARE Case/Control, F&NF MI)?
A: (16.7%)

Q: And the “2 Rare Alleles (%), Pravastatin Patients” value (PPOX hCV25922816, CARE Prospective, F&NF MI)?
A: (16.7%)

Q: And the “2 rare alleles n/total (%), pravastatin patients” value [1]?
A: (11.2%)

Q: And the “Pravastatin vs placebo odds ratio, 0 rare alleles” value [1]?
A: 0.58

Q: What about the “Pravastatin vs placebo odds ratio, 1 rare allele” value [1] of the same compound?
A: 1.04

Q: What about the “Pravastatin vs placebo odds ratio, 2 rare alleles” value [1] of the same compound?
A: 3.15

Q: And the “Pravastatin vs placebo odds ratio, 0 rare alleles” value [2]?
A: 0.57 and 0.56

Q: And the “Pravastatin vs placebo odds ratio, 1 rare allele” value [2]?
A: 1.08 and 0.85

Q: And the “Pravastatin vs placebo odds ratio, 2 rare alleles” value [2]?
A: 3.38 and 2.80

Q: And the “2 Rare Alleles (%), Pravastatin Patients” value (SELL hCV16172571, CARE Case/Control, F&NF MI)?
A: (14.3%)

Q: What about the “2 Rare Alleles (%), Pravastatin Patients” value (SELL hCV16172571, CARE Prospective, F&NF MI) of the same compound?
A: (12.9%)

Q: And the “2 Rare Alleles (%), Pravastatin Patients” value (SELL hCV25474627, CARE Case/Control, F&NF MI)?
A: (14.8%)

Q: What about the “2 Rare Alleles (%), Pravastatin Patients” value (SELL hCV25474627, CARE Prospective, F&NF MI) of the same compound?
A: (13.3%)

Q: And the “2 Rare Alleles (%), Pravastatin Patients” value (SERPINA1 hCV25640504, CARE Case/Control, F&NF MI)?
A: (8.6%)

Q: What about the “2 Rare Alleles (%), Pravastatin Patients” value (SERPINA1 hCV25640504, CARE Prospective, F&NF MI) of the same compound?
A: (8.4%)

Q: What about the “2 Rare Alleles (%), Pravastatin Patients” value [3] of the same compound?
A: (15.1%)

Q: And the “2 Rare Alleles n/total, Pravastatin Patients” value [3]?
A: 21/139

Q: What about the “Pravastatin vs placebo odds ratio, 0 rare alleles” value [3] of the same compound?
A: 0.89

Q: What about the “Pravastatin vs placebo odds ratio, 1 rare allele” value [3] of the same compound?
A: 0.57

Q: What about the “Pravastatin vs placebo odds ratio, 2 rare alleles” value [3] of the same compound?
A: 1.72

Q: And the “2 Rare Alleles (%), Pravastatin Patients” value (SERPINI2 hCV370782, CARE Case/Control, F&NF MI)?
A: (16.2%)

Q: What about the “2 Rare Alleles (%), Pravastatin Patients” value (SERPINI2 hCV370782, CARE Prospective, F&NF MI) of the same compound?
A: (15.8%)

Q: What about the “2 Rare Alleles (%), Pravastatin Patients” value [4] of the same compound?
A: (7.5%)

Q: What about the “2 Rare Alleles n/total, Pravastatin Patients” value [4] of the same compound?
A: 13/173

Q: And the “Pravastatin vs placebo odds ratio, 0 rare alleles” value [4]?
A: 0.71

Q: What about the “Pravastatin vs placebo odds ratio, 1 rare allele” value [4] of the same compound?
A: 1.02

Q: What about the “Pravastatin vs placebo odds ratio, 2 rare alleles” value [4] of the same compound?
A: 0.30

Q: And the “2 Rare Alleles (%), Pravastatin Patients” value [5]?
A: (7.5%)

Q: And the “2 Rare Alleles n/total, Pravastatin Patients” value [5]?
A: 13/174

Q: What about the “Pravastatin vs placebo odds ratio, 0 rare alleles” value [5] of the same compound?
A: 0.72

Q: And the “Pravastatin vs placebo odds ratio, 1 rare allele” value [5]?
A: 0.98

Q: And the “Pravastatin vs placebo odds ratio, 2 rare alleles” value [5]?
A: 0.31

Q: And the “2 Rare Alleles n/total, Pravastatin Patients” value [6]?
A: 1/36 and 1/25

Q: And the “Pravastatin vs placebo odds ratio, 0 rare alleles” value [6]?
A: 0.98 and 0.89

Q: And the “Pravastatin vs placebo odds ratio, 1 rare allele” value [6]?
A: 0.61 and 0.56

Q: And the “Pravastatin vs placebo odds ratio, 2 rare alleles” value [6]?
A: 0.08

Q: What about the “2 Rare Alleles n/total, Pravastatin Patients” value [7] of the same compound?
A: 1/36 and 1/25

Q: And the “Pravastatin vs placebo odds ratio, 0 rare alleles” value [7]?
A: 1.00 and 0.88

Q: And the “Pravastatin vs placebo odds ratio, 1 rare allele” value [7]?
A: 0.60 and 0.55

Q: And the “Pravastatin vs placebo odds ratio, 2 rare alleles” value [7]?
A: 0.09 and 0.08

Q: What about the “2 Rare Alleles (%), Pravastatin Patients” value [8] of the same compound?
A: (29.2%)

Q: What about the “2 Rare Alleles n/total, Pravastatin Patients” value [8] of the same compound?
A: 7/24

Q: And the “Pravastatin vs placebo odds ratio, 0 rare alleles” value [8]?
A: 0.76

Q: And the “Pravastatin vs placebo odds ratio, 1 rare allele” value [8]?
A: 0.56

Q: And the “Pravastatin vs placebo odds ratio, 2 rare alleles” value [8]?
A: 6.81

Q: What about the “2 Rare Alleles (%), Pravastatin Patients” value [9] of the same compound?
A: (8.8%)

Q: What about the “2 Rare Alleles n/total, Pravastatin Patients” value [9] of the same compound?
A: 3/34

Q: And the “Pravastatin vs placebo odds ratio, 0 rare alleles” value [9]?
A: 0.87

Q: And the “Pravastatin vs placebo odds ratio, 1 rare allele” value [9]?
A: 0.52

Q: What about the “Pravastatin vs placebo odds ratio, 2 rare alleles” value [9] of the same compound?
A: 0.14

Q: What about the “2 Rare Alleles (%), Pravastatin Patients” value (TNF hCV7514879, CARE Case/Control, F&NF MI) of the same compound?
A: (8.8%)

Q: What about the “2 Rare Alleles (%), Pravastatin Patients” value [10] of the same compound?
A: (8.6%)

Q: And the “2 Rare Alleles n/total, Pravastatin Patients” value [10]?
A: 3/35

Q: And the “Pravastatin vs placebo odds ratio, 0 rare alleles” value [10]?
A: 0.88

Q: And the “Pravastatin vs placebo odds ratio, 1 rare allele” value [10]?
A: 0.50

Q: And the “Pravastatin vs placebo odds ratio, 2 rare alleles” value [10]?
A: 0.12

Q: What about the “2 Rare Alleles (%), Pravastatin Patients” value (TNF hCV7514879, CARE Prospective, F&NF MI) of the same compound?
A: (8.6%)

Q: What about the “2 Rare Alleles n/total, Pravastatin Patients” value [11] of the same compound?
A: 21/260 and 21/168

Q: And the “Pravastatin vs placebo odds ratio, 0 rare alleles” value [11]?
A: 1.51 and 1.37

Q: What about the “Pravastatin vs placebo odds ratio, 1 rare allele” value [11] of the same compound?
A: 0.63 and 0.56

Q: What about the “Pravastatin vs placebo odds ratio, 2 rare alleles” value [11] of the same compound?
A: 0.66 and 0.64

Q: And the “2 Rare Alleles (%), Pravastatin Patients” value [12]?
A: (7.9%)

Q: What about the “2 Rare Alleles n/total, Pravastatin Patients” value [12] of the same compound?
A: 21/266 and 21/174

Q: What about the “Pravastatin vs placebo odds ratio, 0 rare alleles” value [12] of the same compound?
A: 1.54 and 1.31

Q: And the “Pravastatin vs placebo odds ratio, 1 rare allele” value [12]?
A: 0.65 and 0.58

Q: And the “Pravastatin vs placebo odds ratio, 2 rare alleles” value [12]?
A: 0.63 and 0.61
